Measurements: patent US9663494B2, “Inhibitors of bruton's tyrosine kinase” (Hoffmann-La Roche Inc., priority 2013, dated 2017)

target: Bruton's Tyrosine Kinase (BTK), inactivated state (Homo sapiens (Human), UniProt Q06187); experiment: Bruton's Tyrosine Kinase (BTK) Inhibition TR-FRET (Time Resolved FRET) competition assay; format: binding; conditions: BTK-Eu / Kinase Tracer 178 competition, incubated 18-24 h at 14° C.
Experimental: 10) Add 50 μL microscint-20 and count ^33P cpm on scintillation counter. • Calculate percent activity from raw data in cpm percent activity=(sample−bkg)/(total activity−bkg)×100 • Calculate IC50 from percent activity, using one-site dose response sigmoidal model y=A+((B−A)/(1+((x/C)^D)))) • x=cmpd conc, y=% activity, A=min, B=max, C=IC50, D=1 (hill slope) Bruton's Tyrosine Kinase (BTK) Inhibition TR-FRET (Time Resolved FRET) Assay
This BTK competition assay measures compound potency (IC50) for the inactivated state of Bruton's Tyrosine Kinase using FRET (Förster/Flouresence Resonance Energy Transfer) technology. The BTK-Eu complex was incubated on ice one hour prior to use at a starting concentration of 50 nM BTK-Bioease™: 10 nM Eu-streptavidin (Perkin-Elmer Catalog# AD0062). The assay buffer consisted of 20 mM HEPES (pH 7.15), 0.1 mM DTT, 10 mM MgCl2, 0.5 mg/ml BSA with 3% Kinase Stabilizer (Fremont Biosolutions, Catalog # STB-K02). After 1 h, the reaction mixture from above was diluted 10 fold in assay buffer to make 5 nM BTK: 1 nM Eu-Streptavidin complex (donor fluorophore). 18 μl of a mixture of 0.11 nM BTK-Eu and 0.11 nM Kinase Tracer 178 (Invitrogen, Catalog # PV5593) with BTK-Eu alone as no negative control, was then dispensed into 384-well flat bottom plates (Greiner, 784076). Compounds to be tested in assay were prepared as 10× concentrations and serial dilution in half-log increments was performed in DMSO so as to generate 10 point curves. To initiate the FRET reaction, compounds prepared as 10× stock in DMSO was added to the plates and the plates were incubated 18-24 h at 14° C.

Sequence of Bruton's Tyrosine Kinase (BTK), inactivated state (Q06187 whole entry): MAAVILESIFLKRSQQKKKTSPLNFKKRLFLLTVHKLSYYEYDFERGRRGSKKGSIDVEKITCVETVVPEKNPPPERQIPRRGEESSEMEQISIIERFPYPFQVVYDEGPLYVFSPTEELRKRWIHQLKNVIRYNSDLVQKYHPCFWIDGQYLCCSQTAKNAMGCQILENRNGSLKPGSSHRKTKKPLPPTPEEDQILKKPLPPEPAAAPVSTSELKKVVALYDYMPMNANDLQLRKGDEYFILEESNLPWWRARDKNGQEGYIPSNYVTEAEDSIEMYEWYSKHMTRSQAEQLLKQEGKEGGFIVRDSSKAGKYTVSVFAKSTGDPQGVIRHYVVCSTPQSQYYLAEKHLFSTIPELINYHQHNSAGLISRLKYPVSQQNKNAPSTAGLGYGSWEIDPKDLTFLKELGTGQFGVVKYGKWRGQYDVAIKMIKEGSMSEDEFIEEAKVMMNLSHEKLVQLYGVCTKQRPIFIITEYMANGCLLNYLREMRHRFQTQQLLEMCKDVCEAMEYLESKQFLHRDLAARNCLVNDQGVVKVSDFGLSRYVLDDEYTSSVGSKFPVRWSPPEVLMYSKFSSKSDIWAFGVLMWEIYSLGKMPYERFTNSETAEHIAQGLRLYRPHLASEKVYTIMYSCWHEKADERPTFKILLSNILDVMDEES

IC50 [µM] | SMILES
0.0112 | Cn1nc(-c2cccc(N3CCc4cc(C(C)(C)C#N)ccc4C3=O)c2CO)cc(Nc2ccc(C(=O)N3CCOCC3)cn2)c1=O [Compound 1, 2-[2-[2-(hydroxymethyl)-3-[1-methyl-5-[[5-(morpholine-4-carbonyl)pyridin-2-yl]amino]-6-oxopyridazin-3-yl]phenyl]-1-oxo-3,4-dihydroisoquinolin-6-yl]-2-methylpropanenitrile]
0.0137 | Cn1cc(-c2cccc(N3CCc4cc(C(C)(C)C)ncc4C3=O)c2CO)cc(Nc2ccc(C(=O)N3CCOCC3)cn2)c1=O [Compound 5, 6-tert-butyl-2-[2-(hydroxymethyl)-3-[1-methyl-5-[[5-(morpholine-4-carbonyl)pyridin-2-yl]amino]-6-oxopyridin-3-yl]phenyl]-3,4-dihydro-2,7-naphthyridin-1-one]
0.0146 | Cn1nc(-c2cccc(N3CCc4cc(C(C)(C)C)ncc4C3=O)c2CO)cc(Nc2ccc(C(=O)N3CCOCC3)cn2)c1=O [Compound 6, 6-tert-butyl-2-[2-(hydroxymethyl)-3-[1-methyl-5-[[5-(morpholine-4-carbonyl)pyridin-2-yl]amino]-6-oxopyridazin-3-yl]phenyl]-3,4-dihydro-2,7-naphthyridin-1-one]
0.00177 | Cn1nc(-c2cccc(N3CCOc4cc(C(C)(C)C)ccc4C3=O)c2CO)cc(Nc2ccc(C(=O)N3CCOCC3)cn2)c1=O [Compound 8, 8-tert-butyl-4-[2-(hydroxymethyl)-3-[1-methyl-5-[[5-(morpholine-4-carbonyl)pyridin-2-yl]amino]-6-oxopyridazin-3-yl]phenyl]-2,3-dihydro-1,4-benzoxazepin-5-one]
0.00424 | Cn1nc(-c2cccc(N3CCOc4cc(C(C)(C)C)ccc4C3=O)c2CO)cc(Nc2ccc(S(C)(=O)=O)cn2)c1=O [Compound 9, 8-tert-butyl-4-[2-(hydroxymethyl)-3-[1-methyl-5-[(5-methylsulfonylpyridin-2-yl)amino]-6-oxopyridazin-3-yl]phenyl]-2,3-dihydro-1,4-benzoxazepin-5-one]

Further lines, the compound ahead of its results:

SMILES | IC50 [µM]
Cn1nc(-c2cccc(-n3ccc4cc(C(C)(C)C#N)cc(F)c4c3=O)c2CO)cc(Nc2ccc(OC(C)(C)CO)cn2)c1=O [Compound 2, 2-[8-fluoro-2-[2-(hydroxymethyl)-3-[5-[[5-(1-hydroxy-2-methylpropan-2-yl)oxypyridin-2-yl]amino]-1-methyl-6-oxopyridazin-3-yl]phenyl]-1-oxoisoquinolin-6-yl]-2-methylpropanenitrile] | 0.00112
Cn1nc(-c2cccc(N3CCOc4cc(C(C)(C)CO)ccc4C3=O)c2CO)cc(Nc2ccc(S(C)(=O)=O)cn2)c1=O [Compound 3, 4-[2-(hydroxymethyl)-3-[1-methyl-5-[(5-methylsulfonylpyridin-2-yl)amino]-6-oxopyridazin-3-yl]phenyl]-8-(1-hydroxy-2-methylpropan-2-yl)-2,3-dihydro-1,4-benzoxazepin-5-one] | 0.0526
Cn1cc(-c2cccc(NC(=O)N3Cc4ccc(Cl)cc4C3)c2CO)cc(Nc2ccc(C(=O)N3CCOCC3)cn2)c1=O [Compound 4, 5-chloro-N-[2-(hydroxymethyl)-3-[1-methyl-5-[[5-(morpholine-4-carbonyl)pyridin-2-yl]amino]-6-oxopyridin-3-yl]phenyl]-1,3-dihydroisoindole-2-carboxamide] | 0.0319
Cc1c(-c2cc(Nc3ccc(C(=O)N4CCOCC4)cn3)c(=O)n(C)n2)cccc1-n1ncc2cc(C(C)(C)C)cc(F)c2c1=O [Compound 7, 6-tert-butyl-8-fluoro-2-[2-methyl-3-[1-methyl-5-[[5-(morpholine-4-carbonyl)pyridin-2-yl]amino]-6-oxopyridazin-3-yl]phenyl]phthalazin-1-one] | 0.0065
